We go through 15 molecules from PubChem BioAssay AID220 (DTP/NCI, 2004).

Where “and” joins values, the source holds several entries; their conditions need not be identical. Equal entries are not always repeated. Inconclusive results are not listed.

The subject of the assay is CD8F1 mice, subcutaneous mammary adenocarcinoma, T/C%. The experiment in a line: NCI In Vivo Anticancer Drug Screen. Data for tumor model Mammary Adenocarcinoma CD8F1 (subcutaneous) in CD8F1. The note with it: higher = larger tumour. In short, it runs like this:
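Compound-treated versus vehicle-treated mice with transplantable tumors; survival or tumor size compared as T/C.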

The mark [1] stands for this setting: endpoint: median tumor weight (est.), dose: 12.5 mg/kg/injection, schedule: Q07DX005 (ip), vehicle: saline.
The mark [2] stands for this setting: endpoint: median tumor weight (est.), dose: 25.0 mg/kg/injection, schedule: Q07DX005 (ip), vehicle: saline.
Where [3] appears, read: endpoint: median tumor weight (est.), dose: 50.0 mg/kg/injection, schedule: Q07DX005 (ip), vehicle: saline.
[4] abbreviates: endpoint: median tumor weight change, dose: 15.62 mg/kg/injection, schedule: Q01DX001 (ip), vehicle: Klucel (hydroxypropylcellulose) (HPC).
The mark [5] stands for this setting: endpoint: median tumor weight change, dose: 16.0 mg/kg/injection, schedule: Q01DX001 (ip), vehicle: saline.
Where [6] appears, read: endpoint: median tumor weight change, dose: 31.25 mg/kg/injection, schedule: Q01DX001 (ip), vehicle: Klucel (hydroxypropylcellulose) (HPC).
The mark [7] stands for this setting: endpoint: median tumor weight change, dose: 62.5 mg/kg/injection, schedule: Q01DX001 (ip), vehicle: Klucel (hydroxypropylcellulose) (HPC).
Setting [8] is: endpoint: median tumor weight change, dose: 125.0 mg/kg/injection, schedule: Q01DX001 (ip), vehicle: saline.

`CN(N=O)C(N)=O`: the T/C is, setting by setting: (endpoint: median tumor weight (est.), dose: 3.12 mg/kg/injection, schedule: Q07DX005 (ip), vehicle: suspension in saline) 156 % of control; under setting [1], 103 % of control; (endpoint: median tumor weight (est.), dose: 12.5 mg/kg/injection, schedule: Q07DX005 (ip), vehicle: suspension in saline) 104 % of control; under setting [2], 81 % of control; (endpoint: median tumor weight (est.), dose: 25.0 mg/kg/injection, schedule: Q07DX005 (ip), vehicle: suspension in saline) 100 % of control; under setting [3], 39 % of control. The T/C was 31 % of control (endpoint: median tumor weight (est.), dose: 50.0 mg/kg/injection, schedule: Q07DX005 (ip), vehicle: suspension in saline); 66 % of control under setting [4]; 54 % of control under setting [5]; 29 % of control (endpoint: median tumor weight change, dose: 31.0 mg/kg/injection, schedule: Q01DX001 (ip), vehicle: saline); 67 % of control under setting [6]; 72 % of control (endpoint: median tumor weight change, dose: 31.25 mg/kg/injection, schedule: Q01DX001 (ip), vehicle: suspension in saline). Besides, the T/C is 38 % of control (endpoint: median tumor weight change, dose: 62.0 mg/kg/injection, schedule: Q01DX001 (ip), vehicle: saline); 14 % of control under setting [7]; 57 % of control (endpoint: median tumor weight change, dose: 62.5 mg/kg/injection, schedule: Q01DX001 (ip), vehicle: suspension in saline); -59 % of control under setting [8]; -2 % of control (endpoint: median tumor weight change, dose: 125.0 mg/kg/injection, schedule: Q01DX001 (ip), vehicle: suspension in saline).
Consider `Cc1cc(N(CC(C)Br)CC(C)Br)ccc1N=Nc1ccccc1C(=O)O` (stereo not given), for which the T/C (endpoint: median tumor weight (est.), dose: 1.56 mg/kg/injection, schedule: Q07DX005 (ip), vehicle: saline with Tween-80) is 79 % of control; the T/C (endpoint: median tumor weight (est.), dose: 3.12 mg/kg/injection, schedule: Q07DX005 (ip), vehicle: saline with Tween-80) is 94 % of control; the T/C (endpoint: median tumor weight (est.), dose: 6.25 mg/kg/injection, schedule: Q07DX005 (ip), vehicle: saline with Tween-80) is 68 % of control; the T/C (endpoint: median tumor weight (est.), dose: 12.5 mg/kg/injection, schedule: Q07DX005 (ip), vehicle: saline with Tween-80) was 47 % of control; the T/C (endpoint: median tumor weight (est.), dose: 25.0 mg/kg/injection, schedule: Q07DX005 (ip), vehicle: saline with Tween-80) was 23 % of control.
In the case of `OCCN1CCN(CCCN2c3ccccc3Sc3ccc(C(F)(F)F)cc32)CC1`, the T/C by setting is: (endpoint: median tumor weight (est.), dose: 3.12 mg/kg/injection, schedule: Q07DX005 (ip), vehicle: saline) 85 % of control and 109 % of control; (endpoint: median tumor weight (est.), dose: 6.25 mg/kg/injection, schedule: Q07DX005 (ip), vehicle: saline) 107 % of control and 122 % of control; under setting [1], 80 % of control and 83 % of control; under setting [3], 47 % of control and 48 % of control.
Turning to `[Cl][Mn][Cl]`, the T/C is, setting by setting: (endpoint: median tumor weight (est.), dose: 64.0 mg/kg/injection, schedule: Q07DX005 (ip), vehicle: saline) 111 % of control; (endpoint: median tumor weight (est.), dose: 128.0 mg/kg/injection, schedule: Q07DX005 (ip), vehicle: saline) 66 % of control.
As to `Cc1cc(O)c2c(c1O)C(=O)C13C(=C2O)C(=O)C2C(O)C1C1C(O)C3C(=O)C3=C(O)c4c(O)cc(C)c(O)c4C(=O)C321` (stereo not given), the T/C reads like this: (endpoint: median tumor weight change, dose: 15.62 mg/kg/injection, schedule: Q01DX001 (ip), vehicle: saline with Tween-80) 38 % of control; (endpoint: median tumor weight change, dose: 31.25 mg/kg/injection, schedule: Q01DX001 (ip), vehicle: saline with Tween-80) 100 % of control.
As to `CC1CN1P1(N2CC2C)=NP(N2CC2C)(N2CC2C)=NP(N2CC2C)(N2CC2C)=N1` (stereo not given), the T/C was 61 % of control (endpoint: mean tumor weight, dose: 12.5 mg/kg/injection, schedule: Q04DX005 (ip), vehicle: saline); 97 % of control (endpoint: mean tumor weight, dose: 25.0 mg/kg/injection, schedule: Q04DX005 (ip), vehicle: saline); 119 % of control (endpoint: mean tumor weight, dose: 25.0 mg/kg/injection, schedule: Q07DX005 (ip), vehicle: saline); 66 % of control (endpoint: mean tumor weight, dose: 50.0 mg/kg/injection, schedule: Q04DX005 (ip), vehicle: saline); 92 % of control (endpoint: mean tumor weight, dose: 50.0 mg/kg/injection, schedule: Q07DX005 (ip), vehicle: saline); 13 % of control (endpoint: mean tumor weight, dose: 100.0 mg/kg/injection, schedule: Q04DX005 (ip), vehicle: saline). Further, the T/C runs as follows: (endpoint: mean tumor weight, dose: 100.0 mg/kg/injection, schedule: Q07DX005 (ip), vehicle: saline) 49 % of control; under setting [2], 70 % of control; (endpoint: median tumor weight (est.), dose: 100.0 mg/kg/injection, schedule: Q07DX005 (ip), vehicle: saline) 6 % of control and 11 % of control.
Regarding `Nc1ncnc2c1ncn2C1OC(CO)CC1O` (stereo not given), the T/C runs as follows: (endpoint: median tumor weight (est.), dose: 37.5 mg/kg/injection, schedule: Q07DX005 (ip), vehicle: Klucel (hydroxypropylcellulose) (HPC)) 102 % of control; (endpoint: median tumor weight (est.), dose: 75.0 mg/kg/injection, schedule: Q07DX005 (ip), vehicle: Klucel (hydroxypropylcellulose) (HPC)) 88 % of control.
In the case of `O=C(O)c1ccc(SSc2ccc(C(=O)O)cn2)nc1`, the T/C by setting is: (endpoint: mean tumor weight, dose: 125.0 mg/kg/injection, schedule: Q07DX004 (ip), vehicle: saline) 123 % of control; (endpoint: mean tumor weight, dose: 250.0 mg/kg/injection, schedule: Q07DX004 (ip), vehicle: saline) 102 % of control; (endpoint: mean tumor weight, dose: 500.0 mg/kg/injection, schedule: Q07DX007 (ip), vehicle: saline) 99 % of control.
Take `COc1c(C=O)c2c(c(OC)c1OC)-c1ccc(OC)c(=O)cc1[C@@H](NC(C)=O)CC2`: the T/C is 76 % of control (endpoint: median tumor weight change, dose: 8.0 mg/kg/injection, schedule: Q01DX001 (ip), vehicle: Klucel (hydroxypropylcellulose) (HPC)); 93 % of control under setting [4]; 88 % of control (endpoint: median tumor weight change, dose: 16.0 mg/kg/injection, schedule: Q01DX001 (ip), vehicle: Klucel (hydroxypropylcellulose) (HPC)); 54 % of control (endpoint: median tumor weight change, dose: 31.0 mg/kg/injection, schedule: Q01DX001 (ip), vehicle: Klucel (hydroxypropylcellulose) (HPC)); 69 % of control under setting [6]; 17 % of control (endpoint: median tumor weight change, dose: 62.0 mg/kg/injection, schedule: Q01DX001 (ip), vehicle: Klucel (hydroxypropylcellulose) (HPC)). Under setting [7], the T/C was 7 % of control.
As for `Ic1ncnc2c1ncn2C1CCCO1` (stereo not given), the T/C reads like this: (endpoint: median tumor weight (est.), dose: 25.0 mg/kg/injection, schedule: Q07DX005 (ip), vehicle: Klucel (hydroxypropylcellulose) (HPC)) 36 % of control; (endpoint: median tumor weight (est.), dose: 200.0 mg/kg/injection, schedule: Q07DX005 (ip), vehicle: Klucel (hydroxypropylcellulose) (HPC)) 55 % of control and 64 % of control; (endpoint: median tumor weight (est.), dose: 400.0 mg/kg/injection, schedule: Q07DX005 (ip), vehicle: Klucel (hydroxypropylcellulose) (HPC)) 41 % of control.
With `CCOC(=O)Nc1cc2c(c(N)n1)N=C(c1ccccc1)CN2`, the T/C by setting is: (endpoint: median tumor weight change, dose: 6.25 mg/kg/injection, schedule: Q01DX001 (ip), vehicle: saline with Tween-80) 86 % of control; (endpoint: median tumor weight change, dose: 12.5 mg/kg/injection, schedule: Q01DX001 (ip), vehicle: saline with Tween-80) 35 % of control.
With `O=C1C(NCCO)=C(N2CC2)C(=O)C(NCCO)=C1N1CC1`, the T/C runs as follows: (endpoint: median tumor weight change, dose: 0.62 mg/kg/injection, schedule: Q01DX001 (ip), vehicle: saline) 73 % of control; (endpoint: median tumor weight change, dose: 0.63 mg/kg/injection, schedule: Q01DX001 (ip), vehicle: saline) 36 % of control; (endpoint: median tumor weight change, dose: 5.0 mg/kg/injection, schedule: Q01DX001 (ip), vehicle: saline) 25 % of control.
For the molecule `O=C(O)CSc1nc(-c2ccccc2)c(-c2ccccc2)n1-c1ccccn1`, the T/C is 63 % of control and 72 % of control (endpoint: median tumor weight (est.), dose: 12.5 mg/kg/injection, schedule: Q07DX005 (ip), vehicle: water); 217 % of control and 78 % of control (endpoint: median tumor weight (est.), dose: 25.0 mg/kg/injection, schedule: Q07DX005 (ip), vehicle: water); 64 % of control (endpoint: median tumor weight (est.), dose: 200.0 mg/kg/injection, schedule: Q07DX005 (ip), vehicle: water).
Consider `O=C(C1CO1)C(Cl)(Cl)Cl` (stereo not given), for which the T/C (endpoint: median tumor weight change, dose: 4.0 mg/kg/injection, schedule: Q01DX001 (ip), vehicle: saline) was 81 % of control; the T/C (endpoint: median tumor weight change, dose: 8.0 mg/kg/injection, schedule: Q01DX001 (ip), vehicle: saline) is 72 % of control; the T/C under setting [5] is 68 % of control; the T/C under setting [8] was 34 % of control.
On to `CC1=C(/C=C/C(C)=C/C=C/C(C)=C/C(=O)O)C(C)(C)CCC1`, for which the T/C (endpoint: median tumor weight (est.), dose: 8.0 mg/kg/injection, schedule: Q07DX005 (ip), vehicle: saline with Tween-80) was 47 % of control; the T/C (endpoint: median tumor weight (est.), dose: 16.0 mg/kg/injection, schedule: Q07DX005 (ip), vehicle: saline with Tween-80) was 71 % of control; the T/C (endpoint: median tumor weight (est.), dose: 64.0 mg/kg/injection, schedule: Q07DX005 (ip), vehicle: saline with Tween-80) was 92 % of control and 106 % of control; the T/C (endpoint: median tumor weight (est.), dose: 256.0 mg/kg/injection, schedule: Q07DX005 (ip), vehicle: saline with Tween-80) is 49 % of control.
